From patent publication US4532367A, “Antimicrobially effective derivatives of phenol and methods for their production” (VEB Jenapharm, priority 1981, dated 1985)
Structures can show the parent of a compound that is named as a salt.

Experiments:
[1] = Acute toxicity in white mice with subcutaneous application; settings: mouse, in vivo, sc
Source text: *The toxicity in mg/kg body weight is understood as acute toxicity in
white mice with subcutaneous application.

[2] = known compound, background statement; cited from earlier work
[3] = known compound, background statement; cited from earlier work; remark: listed apart in the source
antimicrobial = settings: known compound, background statement; cited from earlier work
Stability = type: physicochemical; settings: in words
Solubility in water = type: physicochemical; settings: in words
Gram-Positive Bacteria = assay: Effectiveness against gram-positive bacteria (general statement); type: cell-based; settings: in words

Row | SMILES | LD50 [1] [mg/kg] | solubility in water (Solubility in water) | further results
1 | CCc1cc(Cc2ccccc2)cc(Br)c1O [2-bromo-6-ethyl-4-benzylphenol, 6-bromo-2-ethyl-4-benzylphenol] | 2800 |  | 
2 | Cc1cc(Cc2ccccc2)cc(Br)c1O [2-bromo-6-methyl-4-benzylphenol, 6-bromo-2-methyl-4-benzylphenol] | 1500 |  | 
3 | Cc1cc(Cc2ccccc2)cc(Cl)c1O [2-chloro-6-methyl-4-benzylphenol] | 1200 |  | water-solubility [2]: difficult water-solubility; skin compatibility [3]: well skin-compatible; antimicrobial efficacy (antimicrobial): generally good antimicrobial efficacy
4 | Cc1cc(Cc2ccccc2)cc(Cl)c1O [calcium salt of 2-chloro-6-methyl-4-benzylphenol] [calcium salt of 6-chloro-2-methyl-4-benzylphenol] |  | only little soluble in water | stability (Stability): very stable; effectiveness against gram-positive bacteria (Gram-Positive Bacteria): particularly effective
5 | Cc1cc(Cc2ccccc2)cc(Cl)c1O [potassium salt of 6-chloro-2-methyl-4-benzylphenol] |  | good | 
6 | Cc1cc(Cc2ccccc2)cc(Cl)c1O [sodium salt of 6-chloro-2-methyl-4-benzylphenol] |  | well water-soluble | 
